# Legend:
# [1] = tested on: control sera (pooled serum of ten healthy LUMC hospital workers; commercial negative donor pooled serum from the Dutch bloodbank); format: binding, human; set-up: Binding of Control serum LUMC to linear peptides / Binding of Control serum Blood-bank to linear peptides / Binding of Control serum LUMC to looped peptides / Binding of Control Serum Blood-Bank to Looped peptides / Binding of Control serum LUMC to linear peptides of the protein M of SARS-CoV Urbani / Binding of Control serum Blood-bank to linear peptides of the protein M of SARS-CoV Urbani / Binding of Control serum LUMC to looped peptides of the protein M of SARS-CoV Urbani / Binding of Control Serum Blood-Bank to Looped peptides of the protein M of SARS-CoV Urbani: unit not given here
# [2] = tested on: antibodies in sera from SARS patients (sera 1a, 1b, 2, 6, 37, 62, London, SARS-yellow, SARS-green); format: binding, human; set-up: Binding of serum 6 to linear peptides of protein X1 of SARS-CoV Urbani / Binding of serum 37 to linear peptides of protein X1 of SARS-CoV Urbani / Binding of serum 6 to looped/cyclic peptide (PEPSCAN-ELISA) / Binding of serum 37 to looped/cyclic peptide (PEPSCAN-ELISA) / Binding of serum 37 to looped/cyclic peptides of protein X1 of SARS-CoV Urbani / Binding of serum 6 to linear peptides of protein X2 / Binding of serum 37 to linear peptides of protein X2 / Binding of serum 37 to looped/cyclic peptides of protein X2 of SARS-CoV Urbani / Binding of serum 6 to linear peptides of protein M of SARS-CoV Urbani / Binding of serum 37 to linear peptides of protein M of SARS-CoV Urbani / Binding of serum 6 to looped/cyclic peptides of protein M of SARS-CoV Urbani / Binding of serum 37 to looped/cyclic peptides of protein M of SARS-CoV Urbani / Binding of serum 6 to linear peptides of protein X3 of SARS-CoV Urbani / Binding of serum 37 to linear peptides of protein X3 of SARS-CoV Urbani / Binding of serum 37 to looped/cyclic peptides of protein X3 of SARS-CoV Urbani / Binding of serum 6 to linear peptides of protein X4 of SARS-CoV Urbani / Binding of serum 37 to linear peptides of protein X4 of SARS-CoV Urbani / Binding of serum 37 to looped/cyclic peptides of protein X4 of SARS-CoV Urbani / Binding of serum 6 to linear peptides of protein X5 of SARS-CoV Urbani / Binding of serum 37 to linear peptides of protein X5 of SARS-CoV Urbani / Binding of serum 37 to looped/cyclic peptides of protein X5 of SARS-CoV Urbani / Binding of serum 6 to linear peptides of protein N of SARS-CoV Urbani / Binding of serum 37 to linear peptides of protein N of SARS-CoV Urbani / Binding of serum 6 to linear peptide (PEPSCAN-ELISA) / Binding of serum 1a to looped/cyclic peptides of protein N of SARS-CoV Urbani / Binding of serum 1b to looped/cyclic peptides of protein N of SARS-CoV Urbani / Binding of serum 2 to looped/cyclic peptides of protein N of SARS-CoV Urbani / Binding of serum 6 to looped/cyclic peptides of protein N of SARS-CoV Urbani / Binding of serum 37 to looped/cyclic peptides of protein N of SARS-CoV Urbani / Binding of serum 62 to looped/cyclic peptides of protein N of SARS-CoV Urbani / Binding of serum London to looped/cyclic peptides of protein N of SARS-CoV Urbani / Binding of serum SARS-green to looped/cyclic peptides of protein N of SARS-CoV Urbani: unit not given here
# [3] = tested on: rabbit serum obtained by immunizing a rabbit with the SARS-CoV strain Frankfurt 1; format: binding; set-up: Binding of a rabbit serum to linear peptides / Binding of a rabbit serum to looped peptides / Rabbit serum linear peptides / Rabbit serum looped peptides / Binding of a rabbit serum to linear peptides of protein N of SARS-CoV Urbani (Rabbit serum linear peptides) / Binding of a rabbit serum to looped/cyclic peptides of protein N of SARS-CoV Urbani (Rabbit serum looped peptides): unit not given here
sequence,measurement,setting,value
KHKKVSTNLCTHSFR,Binding of Control Serum Blood-Bank to Looped peptides,[1],0.5
same,Binding of Control serum Blood-bank to linear peptides,[1],0.9
same,Binding of Control serum LUMC to linear peptides,[1],0.6
same,Binding of Control serum LUMC to looped peptides,[1],0.7
same,Binding of serum 1a to looped/cyclic peptides of protein X2 of SARS-CoV Urbani,[2],0.5
same,Binding of serum 1b to looped/cyclic peptides of protein X2 of SARS-CoV Urbani,[2],0.0
same,Binding of serum 2 to looped/cyclic peptides of protein X2 of SARS-CoV Urbani,[2],0.7
same,Binding of serum 6 to looped/cyclic peptides of protein X2 of SARS-CoV Urbani,[2],0.4
same,Binding of serum 37 to looped/cyclic peptides of protein X2 of SARS-CoV Urbani,[2],0.2
same,Binding of serum 62 to looped/cyclic peptides of protein X2 of SARS-CoV Urbani,[2],0.4
same,Binding of serum London to looped/cyclic peptides of protein X2 of SARS-CoV Urbani,[2],0.1
same,Binding of serum SARS-green to looped/cyclic peptides of protein X2 of SARS-CoV Urbani,[2],0.3
same,Binding of serum SARS-yellow to looped/cyclic peptides of protein X2 of SARS-CoV Urbani,[2],0.1
same,"Recognition of the peptide by sera of SARS-CoV infected individuals, and form (linear, looped/cyclic) in which it is recognized",[2],recognized in linear form
same,Binding of a rabbit serum to linear peptides,[3],0.4
same,Binding of a rabbit serum to looped peptides,[3],0.0
KKVSTNLCTHSFRKK,Binding of Control Serum Blood-Bank to Looped peptides,[1],0.5
same,Binding of Control serum Blood-bank to linear peptides,[1],0.7
same,Binding of Control serum LUMC to linear peptides,[1],0.4
same,Binding of Control serum LUMC to looped peptides,[1],0.8
same,Binding of serum 1a to looped/cyclic peptides of protein X2 of SARS-CoV Urbani,[2],0.5
same,Binding of serum 1b to looped/cyclic peptides of protein X2 of SARS-CoV Urbani,[2],0.3
same,Binding of serum 2 to looped/cyclic peptides of protein X2 of SARS-CoV Urbani,[2],0.7
same,Binding of serum 6 to looped/cyclic peptides of protein X2 of SARS-CoV Urbani,[2],0.5
same,Binding of serum 37 to looped/cyclic peptides of protein X2 of SARS-CoV Urbani,[2],0.5
same,Binding of serum 62 to looped/cyclic peptides of protein X2 of SARS-CoV Urbani,[2],0.6
same,Binding of serum London to looped/cyclic peptides of protein X2 of SARS-CoV Urbani,[2],0.2
same,Binding of serum SARS-green to looped/cyclic peptides of protein X2 of SARS-CoV Urbani,[2],0.3
same,Binding of serum SARS-yellow to looped/cyclic peptides of protein X2 of SARS-CoV Urbani,[2],0.5
same,"Recognition of the peptide by sera of SARS-CoV infected individuals, and form (linear, looped/cyclic) in which it is recognized",[2],recognized in linear form
same,Binding of a rabbit serum to linear peptides,[3],0.3
same,Binding of a rabbit serum to looped peptides,[3],0.1
KLVFLWLLWPVTLAC,Binding of Control Serum Blood-Bank to Looped peptides of the protein M of SARS-CoV Urbani,[1],0.7
same,Binding of Control serum Blood-bank to linear peptides of the protein M of SARS-CoV Urbani,[1],0.7
same,Binding of Control serum LUMC to linear peptides of the protein M of SARS-CoV Urbani,[1],0.5
same,Binding of Control serum LUMC to looped peptides of the protein M of SARS-CoV Urbani,[1],0.6
same,Binding of serum 1a to linear peptides of protein M of SARS-CoV Urbani,[2],0.7
same,Binding of serum 1a to looped/cyclic peptides of protein M of SARS-CoV Urbani,[2],0.6
same,Binding of serum 1b to linear peptides of protein M of SARS-CoV Urbani,[2],0.6
same,Binding of serum 1b to looped/cyclic peptides of protein M of SARS-CoV Urbani,[2],0.2
same,Binding of serum 2 to linear peptides of protein M of SARS-CoV Urbani,[2],0.5
same,Binding of serum 2 to looped/cyclic peptides of protein M of SARS-CoV Urbani,[2],0.6
same,Binding of serum 6 to linear peptides of protein M of SARS-CoV Urbani,[2],0.4
same,Binding of serum 6 to looped/cyclic peptides of protein M of SARS-CoV Urbani,[2],0.7
same,Binding of serum 37 to linear peptides of protein M of SARS-CoV Urbani,[2],0.5
same,Binding of serum 37 to looped/cyclic peptides of protein M of SARS-CoV Urbani,[2],0.6
same,Binding of serum 62 to linear peptides of protein M of SARS-CoV Urbani,[2],0.5
same,Binding of serum 62 to looped/cyclic peptides of protein M of SARS-CoV Urbani,[2],0.6
same,Binding of serum London to linear peptides of protein M of SARS-CoV Urbani,[2],0.4
same,Binding of serum London to looped/cyclic peptides of protein M of SARS-CoV Urbani,[2],0.2
same,Binding of serum SARS-green to linear peptides of protein M of SARS-CoV Urbani,[2],0.4
same,Binding of serum SARS-green to looped/cyclic peptides of protein M of SARS-CoV Urbani,[2],0.3
same,Binding of serum SARS-yellow to linear peptides of protein M of SARS-CoV Urbani,[2],0.2
same,Binding of serum SARS-yellow to looped/cyclic peptides of protein M of SARS-CoV Urbani,[2],0.5
same,Rabbit serum linear peptides,[3],0.1
same,Rabbit serum looped peptides,[3],0.0
